Assays:
PAEC [1] = assay: Matrigel tube formation assay; format: cell-based, human; settings: FHIT- and BMPR2-deficient PAECs, 15 μM Enzastaurin for 24 hours
Experimental: (§1) Assays were conducted according to the manufacturer's instructions and as previously described(E1,E9).
Quantified area=% of cells that show nuclear γH2AX staining quantified with automated software (white nuclei=positive stain, grey nuclei=background stain). […] FIGS. 9G-9H, MTT proliferation assay in Enzastaurin-treated (0.5-50 M) in PASMC and PAEC, respectively. (n=3). FIGS. 9I-9J, MTT proliferation assay in Enzastaurin-treated (5 M) siFHIT and siBMPR2 transfected PASMC compared to Ntsi control, respectively. (n=3).
Loss of FHIT and BMPR2 impaired PAECs tube formation 6 hours after cells were seeded in a Matrigel tube formation assay(12) compared to cells treated with control Ntsi (FIG. 9A, FIG. 9B).

PASMC = assay: MTT proliferation assay in PASMC; format: cell-based, human; settings: siFHIT PASMC, Enzastaurin 5 M as printed
[2] = system: hypoxia-induced experimental PAH in C57BL/6 and BMPR2+/− C57BL/6 mice; assay: Hypoxia-induced experimental PAH in wildtype and Bmpr2+/− mice; format: in vivo, mouse
Experimental: Right Ventricular (RV) Systolic Pressure was measured through right jugular vein catheterization and RV hypertrophy was assessed by the weight ratio of the RV to left ventricle+septum. Vessel loss and muscularization of lung vessels were visualized by MOVAT pentachrome stain. […] Arrows indicate vessel position. FIG. 3F, Representative MOVAT lung histology depicting vessel structure. Arrows indicate vessel position.
(§2) Fhit homozygous (−/−) mice were obtained from Kay F. Huebner (Ohio State University). Bmpr2+/− mice were a gift from Marlene Rabinovitch (Stanford University). Adult wildtype C57BL/6 mice, Bmpr2+/− or Fhit−/− mice at 8-10 weeks of age were housed in chronic hypoxia (10% O2) for 3 weeks, followed by a recovery period of 4 weeks in normoxia (21% O2). […] Development of experimental PH was induced in adult Sprague Dawley rats (8 weeks old, 180-220 g) through a subcutaneous dose of the VEGFR-2 inhibitor SUGEN5416 (20 mg/kg body weight), followed by exposure to chronic hypoxia (10% O2) for 3 weeks and normoxia for 5 weeks (21% O2), as previously described(12). […] Right Ventricular (RV) Systolic Pressure was measured through right jugular vein catheterization, and RV hypertrophy (RVH) was assessed by the weight ratio of the RV to left ventricle and septum (LV+S).
FIG. 24E, Representative MOVAT lung histology. Arrows indicate vessel position. FIGS. 24F-24G, Representative MOVAT lung histology of large (FIG. 24F) and small vessels (FIG. 24G) respectively. Arrows indicate vessel position.

PAEC [3] = assay: γH2AX staining (DNA damage); format: cell-based, human; settings: siBMPR2 and siFHIT PAEC, 10 μM Enzastaurin for 24 hours
Experimental: as §1
Quantified area=% of cells that show nuclear γH2AX staining quantified with automated software (white nuclei=positive stain, grey nuclei=background stain). […] (n=3). […] (n=3).
As a cumulative viability measurement, we quantified caspase3/7 activity, using the luminescent Caspase-Glo®3/7 assay(36) and DNA damage, using histone H2AX phosphorylation by immunofluorescence and quantification as nuclear area staining (%) by confocal microscopy(34, 35, 37). […] PAEC proliferation was assessed via an MTT proliferation assay and hemocytometer cell counts(36).

[4] = system: FHIT−/− C57BL/6 mice in hypoxia; assay: Hypoxia-induced PH in Fhit−/− mice; format: in vivo, mouse
Experimental: Experimental PAH will be assessed based on Right Ventricular (RV) Systolic Pressure measurements through right jugular vein catheterization and RV hypertrophy was assessed by the weight ratio of the RV to left ventricle+septum. Vessel loss and muscularization of lung vessels will be visualized by MOVAT pentachrome stain or IF staining with αSMA and avWF antibodies.
as §2
FIGS. 23B-23C, ΔΔCt analysis of mRNA expression in lung tissue.

PAEC [5] = assay: Trypan Blue viability assay and total cell counts; format: cell-based, human
[6] = 3 weeks hypoxia, 5 mg/kg daily by mini-osmotic pump, C57BL/6 and BMPR2+/− mice
[7] = 3 weeks hypoxia, 15 mg/kg/day by mini-osmotic pump, Bmpr2+/− and wildtype mice
[8] = C57BL/6 FHIT−/− mice, 3 weeks hypoxia, 5 mg/kg daily by osmotic pump, method in future tense
[9] = Fhit−/− mice, hypoxia, 5 mg/kg/day via mini osmotic pump

Compound: Cn1cc(C2=C(c3cn(C4CCN(Cc5ccccn5)CC4)c4ccccc34)C(=O)NC2=O)c2ccccc21 [Enzastaurin, 3-(1-methyl-1H-indol-3-yl)-4-[1-[1-(pyridin-2-ylmethyl)piperidin-4-yl]-1H-indol-3-yl]-1H-pyrrole-2,5-dione]
- Defects in tube formation (PAEC [1]): fully reversed the defects in tube formation
- Increased PASMC proliferation induced by reductions in FHIT (MTT) (PASMC): rescued
- Hypoxia-induced PH (changes in RVSP, RVH and pulmonary physiology) ([2]; 2-week treatment, 15 mg/kg/day, Bmpr2+/− and wild-type C57BL/6 mice): attenuated
- Right ventricle systolic pressure (RVSP) ([2]; 3 weeks hypoxia, 5 mg/kg daily by mini-osmotic pump, vs hypoxia vehicle control): partial reduction
- Full or partial muscularization of AW and AD vessels [2, 6]: significantly ameliorated
- Loss of alveolar wall (AW) and alveolar duct (AD) pulmonary vessels [2, 6]: significantly ameliorated
- Right ventricle (RV) hypertrophy (RV/LV+S) [2, 6]: substantial reduction
- Muscularization of distal vessels [2, 7]: prevented
- RVH increase [2, 7]: prevented
- RVSP increase [2, 7]: prevented
- Vascular rarefaction [2, 7]: prevented
- DNA damage (nuclear γH2AX staining) induced by FHIT or BMPR2-loss (PAEC [3]): significantly attenuated
- FHIT levels (FIG. 5C) [4, 8]: fails to increase FHIT levels
- PKC levels (FIG. 5C) [4, 8]: effectively downregulating PKC levels
- Pulmonary hypertension development (FIG. 5C) [4, 8]: does not protect from pulmonary hypertension development
- BMPR2 expression in whole lung tissue [4, 9]: increased
- FHIT mRNA expression in lung tissue [4, 9]: unmeasurably low
- ID1 expression in whole lung tissue [4, 9]: increased
- PH [4, 9]: improved PH
- RVSP ([4]; male FHIT−/− mice, 3 weeks hypoxia, 5 mg/kg by mini-osmotic pump, vs Sham control): protects from increased RVSP
- Total cell counts (PAEC [5]; Enzastaurin up to 50 μM): increased cell numbers
- Cell toxicity by Trypan Blue viability assay (PAEC [5]; varying concentrations of Enzastaurin): did not elicit cell toxicity

From US11413280B2 (The Board of Trustees of the Leland Stanford Junior …, priority 2017, dated 2022)
